Source: patent US20230017045A1, “PYRIDINE AND PYRIMIDINE CARBOXYLATE HERBICIDES AND METHODS OF USE THEREOF” (Dow AgroSciences LLC, priority 2017, published 2023)

System: test plant species
Test: Post-emergent herbicidal activity test (greenhouse, foliar spray, visual growth reduction)
Format: in vivo
Conditions: post-emergence, 336 h, ALOMY: blackgrass (Alopecurus myosuroides), 140 g ai/ha, 14 days after application, read-out: Visual Growth Reduction (%) 14 Days After Application, ALOMY
Method: Post-emergent Test: Seeds or nutlets of the desired test plant species were planted in Sun Gro Metro-Mix® 360 planting mixture, which typically has a pH of 6.0 to 6.8 and an organic matter content of about 30 percent, in plastic pots with a surface area of 64 square centimeters. In some aspects, to ensure good germination and healthy plants, a fungicide treatment and/or other chemical or physical treatment was applied. The plants were grown for 7-21 d in a greenhouse with an approximate 15 h photoperiod which was maintained at 23-29° C. during the day and 22-28° C. during the night. Nutrients and water were added on a regular basis and supplemental lighting was provided with overhead metal halide 1000-Watt lamps as necessary. Plants were used for testing when they reached the first or second true leaf stage. A weighed amount, determined by the highest rate to be tested, of each test compound was placed in a 25 mL glass vial and was dissolved in 4 mL of a 97:3 v/v mixture of acetone and DMSO to obtain concentrated stock solutions. […] The concentrated stock solutions obtained were diluted with 20 mL of an aqueous mixture containing acetone, water, isopropyl alcohol, DMSO, […] crop oil concentrate, and X-77 surfactant in a 48.5:39:10:1.5:1.0:0.02 v/v ratio to obtain spray solutions containing the application rate. Compound requirements are based upon a 12 mL application volume at a rate of 187 liters per hectare (L/ha). Formulated compounds were applied to the plant material with an overhead Mandel track sprayer equipped with […] nozzles calibrated to deliver 187 L/ha over an application area of 0.64 square meters at a spray height of 18 inches (43 cm) above the average plant canopy height. Control plants were sprayed in the same manner with the solvent blank. The treated plants and control plants were placed in a greenhouse as described above and watered by subirrigation to prevent wash-off of the test compounds. After 14 d, the condition of the test plants as compared with that of the nontreated and control plants was determined visually and scored on a scale of 0 to 100 percent where 0 corresponds to no injury and 100 corresponds to complete control. In the reporting of the results, Table A: Percent Growth Reduction Conversion Table was used.

Compound	pest or weed control at 140 g/ha
COC(=O)c1nc(-c2ccc(C(F)(F)F)cc2Cl)c(F)cc1Cl [F107, methyl 3-chloro-6-(2-chloro-4-(trifluoromethyl)phenyl)-5-fluoropicolinate]	30 to 44%
COC(=O)c1nc(-c2ccc(I)cc2)c(F)cc1Cl [F100, Methyl 3-chloro-5-fluoro-6-(4-iodophenyl) picolinate]	0 to 29%

Same assay, conditions: post-emergence, 336 h, AMARE: redroot pigweed (Amaranthus retroflexus), 140 g ai/ha, 14 days after application, read-out: Visual Growth Reduction (%) 14 Days After Application, AMARE

Compound	pest or weed control at 140 g/ha
COC(=O)c1nc(-c2ccc(C(F)(F)F)cc2Cl)c(F)cc1Cl [F107, methyl 3-chloro-6-(2-chloro-4-(trifluoromethyl)phenyl)-5-fluoropicolinate]	95 to 100%
COC(=O)c1nc(-c2ccc(I)cc2)c(F)cc1Cl [F100, Methyl 3-chloro-5-fluoro-6-(4-iodophenyl) picolinate]	0 to 29%

Same assay, conditions: post-emergence, 336 h, AVEFA: wild oat (Avena fatua), 140 g ai/ha, 14 days after application, read-out: Visual Growth Reduction (%) 14 Days After Application, AVEFA

Compound	pest or weed control at 140 g/ha
COC(=O)c1nc(-c2ccc(C(F)(F)F)cc2Cl)c(F)cc1Cl [F107, methyl 3-chloro-6-(2-chloro-4-(trifluoromethyl)phenyl)-5-fluoropicolinate]	45 to 59%
COC(=O)c1nc(-c2ccc(I)cc2)c(F)cc1Cl [F100, Methyl 3-chloro-5-fluoro-6-(4-iodophenyl) picolinate]	0 to 29%

Same assay, conditions: post-emergence, 336 h, CHEAL: lambsquarters (Chenopodium album), 140 g ai/ha, 14 days after application, read-out: Visual Growth Reduction (%) 14 Days After Application, CHEAL

Compound	pest or weed control at 140 g/ha
COC(=O)c1nc(-c2ccc(C(F)(F)F)cc2Cl)c(F)cc1Cl [F107, methyl 3-chloro-6-(2-chloro-4-(trifluoromethyl)phenyl)-5-fluoropicolinate]	95 to 100%
COC(=O)c1nc(-c2ccc(I)cc2)c(F)cc1Cl [F100, Methyl 3-chloro-5-fluoro-6-(4-iodophenyl) picolinate]	0 to 29%

Same assay, conditions: post-emergence, 336 h, CIRAR: canada thistle (Cirsium arvense), 140 g ai/ha, 14 days after application, read-out: Visual Growth Reduction (%) 14 Days After Application, CIRAR

Compound	pest or weed control at 140 g/ha
COC(=O)c1nc(-c2ccc(C(F)(F)F)cc2Cl)c(F)cc1Cl [F107, methyl 3-chloro-6-(2-chloro-4-(trifluoromethyl)phenyl)-5-fluoropicolinate]	95 to 100%
COC(=O)c1nc(-c2ccc(I)cc2)c(F)cc1Cl [F100, Methyl 3-chloro-5-fluoro-6-(4-iodophenyl) picolinate]	45 to 59%

Same assay, conditions: post-emergence, 336 h, CYPES: yellow nutsedge (Cyperus esculentus), 140 g ai/ha, 14 days after application, read-out: Visual Growth Reduction (%) 14 Days After Application, CYPES

Compound	pest or weed control at 140 g/ha
COC(=O)c1nc(-c2ccc(C(F)(F)F)cc2Cl)c(F)cc1Cl [F107, methyl 3-chloro-6-(2-chloro-4-(trifluoromethyl)phenyl)-5-fluoropicolinate]	0 to 29%
COC(=O)c1nc(-c2ccc(I)cc2)c(F)cc1Cl [F100, Methyl 3-chloro-5-fluoro-6-(4-iodophenyl) picolinate]	30 to 44%

Same assay, conditions: post-emergence, 336 h, DIGSA: crabgrass (Digitaria sanguinalis), 140 g ai/ha, 14 days after application, read-out: Visual Growth Reduction (%) 14 Days After Application, DIGSA

Compound	pest or weed control at 140 g/ha
COC(=O)c1nc(-c2ccc(C(F)(F)F)cc2Cl)c(F)cc1Cl [F107, methyl 3-chloro-6-(2-chloro-4-(trifluoromethyl)phenyl)-5-fluoropicolinate]	95 to 100%
COC(=O)c1nc(-c2ccc(I)cc2)c(F)cc1Cl [F100, Methyl 3-chloro-5-fluoro-6-(4-iodophenyl) picolinate]	0 to 29%

Same assay, conditions: post-emergence, 336 h, ECHCG: barnyardgrass (Echinochloa crus-galli), 140 g ai/ha, 14 days after application, read-out: Visual Growth Reduction (%) 14 Days After Application, ECHCG

Compound	pest or weed control at 140 g/ha
COC(=O)c1nc(-c2ccc(C(F)(F)F)cc2Cl)c(F)cc1Cl [F107, methyl 3-chloro-6-(2-chloro-4-(trifluoromethyl)phenyl)-5-fluoropicolinate]	0 to 29%
COC(=O)c1nc(-c2ccc(I)cc2)c(F)cc1Cl [F100, Methyl 3-chloro-5-fluoro-6-(4-iodophenyl) picolinate]	0 to 29%

Same assay, conditions: post-emergence, 336 h, IPOHE: ivy-leaf morning glory (Ipomoea hederacea), 140 g ai/ha, 14 days after application, read-out: Visual Growth Reduction (%) 14 Days After Application, IPOHE

Compound	pest or weed control at 140 g/ha
COC(=O)c1nc(-c2ccc(C(F)(F)F)cc2Cl)c(F)cc1Cl [F107, methyl 3-chloro-6-(2-chloro-4-(trifluoromethyl)phenyl)-5-fluoropicolinate]	95 to 100%
COC(=O)c1nc(-c2ccc(I)cc2)c(F)cc1Cl [F100, Methyl 3-chloro-5-fluoro-6-(4-iodophenyl) picolinate]	30 to 44%

Same assay, conditions: post-emergence, 336 h, KCHSC: kochia (Bassia scoparia), 140 g ai/ha, 14 days after application, read-out: Visual Growth Reduction (%) 14 Days After Application, KCHSC

Compound	pest or weed control at 140 g/ha
COC(=O)c1nc(-c2ccc(C(F)(F)F)cc2Cl)c(F)cc1Cl [F107, methyl 3-chloro-6-(2-chloro-4-(trifluoromethyl)phenyl)-5-fluoropicolinate]	60 to 74%
COC(=O)c1nc(-c2ccc(I)cc2)c(F)cc1Cl [F100, Methyl 3-chloro-5-fluoro-6-(4-iodophenyl) picolinate]	0 to 29%

Same assay, conditions: post-emergence, 336 h, ORYSA: rice (Oryza sativa), 140 g ai/ha, 14 days after application, read-out: Visual Growth Reduction (%) 14 Days After Application, ORYSA

Compound	pest or weed control at 140 g/ha
COC(=O)c1nc(-c2ccc(C(F)(F)F)cc2Cl)c(F)cc1Cl [F107, methyl 3-chloro-6-(2-chloro-4-(trifluoromethyl)phenyl)-5-fluoropicolinate]	0 to 29%
COC(=O)c1nc(-c2ccc(I)cc2)c(F)cc1Cl [F100, Methyl 3-chloro-5-fluoro-6-(4-iodophenyl) picolinate]	0 to 29%

Same assay, conditions: post-emergence, 336 h, SETFA: giant foxtail (Setaria faberi), 140 g ai/ha, 14 days after application, read-out: Visual Growth Reduction (%) 14 Days After Application, SETFA

Compound	pest or weed control at 140 g/ha
COC(=O)c1nc(-c2ccc(C(F)(F)F)cc2Cl)c(F)cc1Cl [F107, methyl 3-chloro-6-(2-chloro-4-(trifluoromethyl)phenyl)-5-fluoropicolinate]	45 to 59%
COC(=O)c1nc(-c2ccc(I)cc2)c(F)cc1Cl [F100, Methyl 3-chloro-5-fluoro-6-(4-iodophenyl) picolinate]	0 to 29%

Same assay, conditions: post-emergence, 336 h, SORVU: grain sorghum (Sorghum vulgare), 140 g ai/ha, 14 days after application, read-out: Visual Growth Reduction (%) 14 Days After Application, SORVU

Compound	pest or weed control at 140 g/ha
COC(=O)c1nc(-c2ccc(C(F)(F)F)cc2Cl)c(F)cc1Cl [F107, methyl 3-chloro-6-(2-chloro-4-(trifluoromethyl)phenyl)-5-fluoropicolinate]	95 to 100%
COC(=O)c1nc(-c2ccc(I)cc2)c(F)cc1Cl [F100, Methyl 3-chloro-5-fluoro-6-(4-iodophenyl) picolinate]	30 to 44%

Same assay, conditions: post-emergence, 336 h, STEME: common chickweed (Stellaria media), 140 g ai/ha, 14 days after application, read-out: Visual Growth Reduction (%) 14 Days After Application, STEME

Compound	pest or weed control at 140 g/ha
COC(=O)c1nc(-c2ccc(C(F)(F)F)cc2Cl)c(F)cc1Cl [F107, methyl 3-chloro-6-(2-chloro-4-(trifluoromethyl)phenyl)-5-fluoropicolinate]	0 to 29%
COC(=O)c1nc(-c2ccc(I)cc2)c(F)cc1Cl [F100, Methyl 3-chloro-5-fluoro-6-(4-iodophenyl) picolinate]	0 to 29%

Same assay, conditions: post-emergence, 336 h, TRZAS: wheat, spring (Triticum aestivum), 140 g ai/ha, 14 days after application, read-out: Visual Growth Reduction (%) 14 Days After Application, TRZAS

Compound	pest or weed control at 140 g/ha
COC(=O)c1nc(-c2ccc(C(F)(F)F)cc2Cl)c(F)cc1Cl [F107, methyl 3-chloro-6-(2-chloro-4-(trifluoromethyl)phenyl)-5-fluoropicolinate]	45 to 59%
COC(=O)c1nc(-c2ccc(I)cc2)c(F)cc1Cl [F100, Methyl 3-chloro-5-fluoro-6-(4-iodophenyl) picolinate]	0 to 29%
